Data from patent publication US6894073B2, “Use of diterpene compound as a therapeutic agent of inflammation, immune disease or cancer” (Korea Research Institute of Bioscience and Biotechnology, priority 2000, dated 2005).

Tests used:
adjuvant arthritis model = assay: Adjuvant arthritis model, paw volume; assay type: in vivo, Sprague-Dawley rat; settings: for Inhibition rate (%) of arthritis: day 16-22, paw volume on 23rd day
Protocol: Finding the inhibitory effect of kaurane diterpene compounds on the production of NO, prostaglandin, and TNF, and on the activation of NF-κB in the murine macrophage cells stimulated by LPS, the present inventors investigated the pharmacological efficacy of kaurane diterpene compounds with a adjuvant arthritis model according to the method of Futaki et al. (General Pharmacology, 1993, 24, 105-110). To prepare animal model of the arthritis, 0.05 ml of 0.1% Mycobacterium butyricum suspended in Freud adjuvant (Sigma, USA) was injected intradermally to the left hind paw of the male Sprague-Dawley rat of 180 g weight. On the fifteenth day after injection, the volume of the right paw of the rats was measured using plethysmometer (Ugo-Basile, Italy), and only the rats having arthritis on the right leg were selected. Thereafter, the selected rats were divided into four groups, six rats per each group. Four kinds of kaurane diterpene compounds of the present invention were administered orally to each groups everyday from the sixteenth day to twenty-second day with doses of 3 mg/kg/day, 10 mg/kg/day, and 20 mg/kg/day in the form of the suspended solution with 0.1% methylcellulose. The inhibition rate of arthritis was calculated by comparing the volume of the paw with that of the control on the 23rd day.

Bf1-1/A1 mRNA = assay: TNF-α-induced Bf1-1/A1 mRNA expression, Northern blot, MCF-7 and HT-1080 cells; assay type: cell-based; settings: 1, 5, 10 μg/ml, 20 ng/ml TNF-α 3 hours
Protocol: MCF-7 cells (ATCC HTB 22, breast cancer cell line) and HT-1080 cells (ATCC CCL 121, fibroblastoma) were pretreated for 30 minutes with 1 μg/ml, 5 μg/ml, and 10 μg/ml concentrations of four kinds of kaurane diterpene compounds. Thereafter, 20 ng/ml concentrations of TNF-α were treated for three hours to induce the expression of Bf1-1/A1 mRNA. After isolating total RNA from the control and compound-treated cells, the expression of Bf1-1/A1 mRNA was measured by Northern blot analysis. To accomplish this, 20 μg of the total RNA was electrophoresed in the 1% agarose gel containing 2.2M concentrations of formaldehyde. After that, RNA was transferred to nylon membrane and fixed using ultraviolet. The nylon membrane was hybridized with ^32P-labeled probe, which was represented by SEQ. ID NO. 2 and specific to the cDNA of Bf1-1/A1 gene. After washing unbound probe with phosphate buffered saline (PBS) containing sodium dodecyl sulfate (SDS), the membrane was exposed to x-ray film.

cIAP-1 = assay: TNF-α-induced cIAP-1 protein expression, Western blot, MCF-7 and HT-1080 cells; assay type: cell-based; settings: 1, 5, 10 μg/ml, 20 ng/ml TNF-α 3 hours
Protocol: (§1) MCF-7 cells and HT-1080 cells were pretreated for 30 minutes with 1 μg/ml, 5 μg/ml, and 10 μg/ml concentrations of four kinds of kaurane diterpene compounds, respectively. After that, 20 ng/ml concentrations of TNF-α were treated for three hours to induce the expression of cIAP-1 and cIAP-2 proteins. Protein extract was prepared from cultured cells using buffer solution for protein extraction consisting of 50 mM Tris-HCL (pH 7.5), 1% Nonidet P40, 150 mM NaCl, 1 mM EDTA, 1 mM phenylmethyl sulfonyl fluoride, […]. 50 μg of protein extract of the control and compound-treated groups was applied to the SDS-polyacrylamide gel electrophoresis. After transferring the proteins into the polyvinylidene difluoride membrane, the membrane was blocked with 5% skim milk for three hours, and were reacted with antibodies against cIAP-1, cIAP-2, Bcl-2, and Bax proteins (Santa Cruz Biochemicals). The membrane was washed with PBS and was reacted with secondary antibody conjugated with horseradish peroxidase. After washing again with PBS, the protein was detected by ECL system (Amersham Pharmacia Biotec).

cIAP-2 = assay: TNF-α-induced cIAP-2 protein expression, Western blot, MCF-7 and HT-1080 cells; assay type: cell-based; settings: 1, 5, 10 μg/ml, 20 ng/ml TNF-α 3 hours
Protocol: as §1

Bcl-2 = Bcl-2 expression, Western blot, MCF-7 and HT-1080 cells; assay type: cell-based; settings: 1, 5, 10 μg/ml, 20 ng/ml TNF-α 3 hours
Protocol: as §1

Bax = Bax expression, Western blot, MCF-7 and HT-1080 cells; assay type: cell-based; settings: 1, 5, 10 μg/ml, 20 ng/ml TNF-α 3 hours
Protocol: as §1

iNOS mRNA = iNOS mRNA expression, RT-PCR, LPS-stimulated Raw 264.7 cells; assay type: cell-based, murine; settings: 1 μg/ml, LPS 1 μg/ml, 6 hours
Protocol: Raw 264.7 murine macrophage cells were treated simultaneously with 1 μg/ml concentrations of LPS and 0.1 μg/ml, 0.3 μg/ml, 1 μg/ml, and 3 μg/ml concentrations of kamebakaurin and were incubated for 6 hours at 37° C. in a 5% CO2 incubator. After isolation of total RNA, reverse transcriptase-polymerase chain reaction (RT-PCR) was performed using said RNA as a template and primer pairs represented by SEQ. ID NO. 3 and 4 for iNOS gene and primer pairs represented by SEQ. ID NO. 5 and 6 for COX-2.

iNOS protein = iNOS protein expression, Western blot, LPS-stimulated Raw 264.7 cells; assay type: cell-based, murine; settings: LPS 1 μg/ml, 18 hours
Protocol: (§2) Raw 264.7 murine macrophage cells were treated simultaneously with 1 μg/ml concentrations of LPS and 0.1 μg/ml, 0.3 μg/ml, 1 μg/ml, and 3 μg/ml concentrations of kamebakaurin and were incubated for 18 hours at 37° C. in a 5% CO2 incubator. After preparing total cell lysates from cultured cells using buffer solution for protein extraction of the Example <7-2>, the expression pattern of proteins was assessed by Western blot analysis.

COX-2 protein = COX-2 protein expression, Western blot, LPS-stimulated Raw 264.7 cells; assay type: cell-based, murine; settings: 0.1-3 μg/ml, LPS 1 μg/ml, 18 hours
Protocol: as §2

Compound: C=C1C(=O)[C@@]23[C@H](O)C[C@@H]4C(C)(C)CC[C@H](O)[C@@]4(CO)[C@@H]2CC[C@@H]1[C@H]3O [Kamebakaurin, kamebakaurin]
- Inhibition rate (%) of arthritis (adjuvant arthritis model; 3 mg/kg/day oral): 35 ± 19%
- Inhibition rate (%) of arthritis (adjuvant arthritis model; 10 mg/kg/day oral): 59 ± 11%
- Inhibition rate (%) of arthritis (adjuvant arthritis model; 20 mg/kg/day oral): 71 ± 17%
- Suppression of arthritis (in words) (adjuvant arthritis model; 3, 10, 20 mg/kg/day oral): suppressed dose-dependently
- Expression of Bf1-1/A1 mRNA induced by TNF-α (Bf1-1/A1 mRNA): inhibited
- Expression of cIAP-1 protein induced by TNF-α (cIAP-1): inhibited
- Expression of cIAP-2 protein induced by TNF-α (cIAP-2): inhibited
- Expression of Bcl-2 (Bcl-2): not inhibited
- Expression of Bax (Bax): not inhibited
- Expression of iNOS mRNA (iNOS mRNA): completely suppressed
- Expression of iNOS protein (iNOS protein; 3 μg/ml): completely suppressed
- Expression of iNOS protein (iNOS protein; 0.1-3 μg/ml): suppressed dose-dependently
- Expression of COX-2 protein (COX-2 protein): suppressed dose-dependently
